Laboratory results reported in patent US20070202047A1, “Polyamine-substituted ligands for use as contrast agents” (priority 2006, published 2007).

Experiments:
[1] = system: subcutaneous MH3924A tumor; test: MRI of ACI rats bearing a subcutaneous MH3924A tumor; assay type: in vivo, rat; settings: 1 h post Gd, 0.1 mmol/kg i.v., 2.35 T
Protocol: Animal models. For in vivo tumor studies 2×10^6 MH3924A tumor cells were injected subcutaneously into the right thigh of male ACI rats (Charles River, Sulzfeld, Germany) weighing 220 to 260 g. All animal experiments were performed in compliance with the German Animal Protection Laws (Permission 35-9185.81/G-7-03, Reg.-Praesidium, Karlsruhe, Germany).
MRI. At 25 days after inoculation, when tumors had reached a diameter of ca. 10-15 mm, the MR imaging experiments were initiated. ACI rats were anesthetized by intravenous injection of ketamin (Ketanest®, 0.1 mg/g body wt.; Parke-Davis, Berlin, Germany). Then a dose of 0.1 mmol/kg Magnevist® or Gadovist® (Schering, Berlin, Germany) or one of the synthesized agents Gd-3.1., Gd-5.1. or Gd-6.1. was injected intravenously into a lateral tail vein. For one experiment a higher dose (0.36 mmol/kg) of Magnevist® was used. Individual rats were examined by MRI at 1 h and 24 h post Gd, in the case of Magnevist® also at ca. 15 min post Gd. Proton imaging studies were performed at 2.35 T (100.3 MHz) with a Biospec 24/40 instrument (Bruker BioSpin MRI, Ettlingen, Germany). […] Two transaxial multislice imaging protocols were applied with a field of view of 70×70 mm, 128 time-domain data points, 96 phase-encoding steps, and 16 slices of 2 mm thickness. A multi-spin-echo sequence was used for proton-density and T2-weighted images (repetition time TR=2 s, 12 echoes with echo times TE of 8, 16, 24, . . . 96 ms, number of averages=1), and a spoiled gradient-echo sequence was used for T1-weighted imaging (TR=212 ms, TE=5 ms, flip angle=60°, number of averages=3). The data were Fourier transformed to give a 128×128 image matrix with 0.55 mm pixel resolution. Analogous T1-weighted images with coronal slices were acquired with a field of view of 80×80 mm and 3-mm slice thickness.
Imaging viewing, ROI analysis and export of TIFF files was performed with the freeware MRIcro from Chris Rorden (http://people.cas.sc.edu/rorden/mricro.html).

[2] = system: B16, MH3924A, Hela, MCF-7, A498 and mouse fibroblasts (3T3 NIH); test: Intracellular uptake, cell panel of FIG. 7A (ICP-MS); assay type: cell-based; settings: 1-h incubation, 10-100 μM, samples of 3×10^6 cells (FIG. 7A)
Protocol: (§1) Cell Uptake Studies. A493 (human kidney), B16 melanoma cells (mouse), HeLa (human cervix), MCF-7 (human breats), MH3924A (Morris hepatoma) cells (rat) and 3T3 NIH (mouse fibroblasts) were obtained from the DKFZ tumor cell collection. 3×10^6 cells of each cell type were grown for 24 hours in culture flasks. Afterwards they were incubated for 1 hour in 10 mL culture media containing 0, 10, 50 and 100 μM of Gd-2.2. Gd-3.2 or Gd-4.2. Afterwards the medium was removed, the cells were trypsinated, washed twice, resuspended in culture medium and counted. The gadolinium uptake was determined in triplicate. […] cells were incubated with 0, 1, 2.5, 5 and 10 μM of the Gd-1.2. and Gd-5.2. for 24 h.
(§2) ICP-MS: Equal cell counts were taken and digested with HNO3 under microwave heating (Mars5, CEM). The samples were diluted with water containing Rh-103 as an internal standard. Gd-157 measurements were performed with a high resolution ICP-mass spectrometer (ELEMENT 2, Finnigan MAT). The gadolinium concentrations were determined from standard curves created prior to sample analyses.

[3] = system: MH3924A Morris hepatoma cells; test: Intracellular uptake of gadolinium complexes (ICP-MS); assay type: cell-based, rat; settings: MH3924A
Protocol: (§3) Cell culture. B16 melanoma cells (mouse) and MH3924A Morris hepatoma cells (rat) were obtained from the German Cancer Research Center (DKFZ) tumor bank and grown at 37° C. as stock cultures in RPMI 1640 supplemented with 10% fetal calf serum and 1% glutamine as standard medium under a 5% CO2 atmosphere (all components: Pan Biotech GmbH, Aidenbach, Germany). For contrast agent uptake studies 10^6 cells were inoculated into 25 cm^2 culture flasks (BD Biosciences, Bedford, USA) and grown for 24 h in 10 mL of the standard culture medium. Cells were then incubated for an additional 24 h (1 h for temperature dependence studies) with fresh medium containing 0, 1, 2.5, 5 or 10 μM of the selected gadolinium complex (three replicate flasks for each incubation). Afterwards the medium was removed, cells were trypsinated, washed twice, resuspended in culture medium and counted (typical yields: 3.5-6 million cells). For comparison 2.5×10^5 human melanocytes (Promo Cell, Heidelberg, Germany) were incubated for 24 h with melanocyte growth medium (Promo Cell, Heidelberg, Germany) containing 0, 1, 2.5, 5 or 10 μM of the selected gadolinium complex (two replicate flasks for each incubation). The work up procedure was as described above typically yielding 2.5×10^5 cells. Cultured human hepatocytes (Cytonet GmbH, Weinheim, Germany) embedded in a collagen matrix in a 12 well microtiter plate, with 6×10^5 viable cells per well were incubated for 24 h in hepatocyte growth medium (Cytonet GmbH, Weinheim, Germany) containing the same concentration series of selected gadolinium complexes. Afterwards the medium was removed, cells were separated using collagenase (Roche Diagnostics, Mannheim, Germany). After digestion the cells were washed twice with PBS, resuspended in culture medium and counted (typical yields: 6×10^5 cells per tube). The intracellular gadolinium content was determined by ICP-MS as described below.
(§4) ICP-MS. Samples containing the above mentioned number of harvested cells were digested with 50% concentrated HNO3 (Superselect; Merck, Darmstadt, Germany) under microwave heating with a Mars 5 apparatus (CEM GmbH, Kamp-Lintfort, Germany). To each sample 100 μL of an aqueous solution of rhodium chloride (1 μg/mL) were added so that Rh-103 could be used as an internal quantification standard. Gd-160 measurements were performed with the ICP-MS instrument mentioned above. The gadolinium concentrations were determined using standard curves created prior to cell analyses. For each uptake incubation condition triplicate cell samples were analyzed, and Gd content for each sample was recorded as the mean of two MS determinations.
(§5) Intracellular Uptake of Gadolinium Complexes. B16 melanoma and MH3924A hepatoma cells as well as human melanocytes and hepatocytes were incubated for 24 h in the presence of the gadolinium complexes shown in FIG. 1, using concentrations in the range of 1-10 μM. Incubations with the unsubstituted [Gd(DTPA)(H2O)]^2−complex (Magnevist®) served as controls. Following cell harvest and hydrolysis, inductively coupled plasma mass spectrometry (ICP-MS) with direct detection of gadolinium was used to quantitate complex uptake (triplicate cultures for each incubation).
as §1, with “h. […]” for “h.”

[4] = Biodistribution in BALB/c nu/nu mice carrying B16 melanoma; assay type: in vivo, mouse; settings: 1 h post i.v. injection, perfused organs, B16 melanoma-bearing mice
Protocol: Animal model. For in vivo tumor studies 3×10^6 B16 tumor cells were injected subcutaneously into the right thigh of male BALB/c nu/nu mice (Charles River, Sulzfeld, Germany) weighing 18 to 21 g. All animal experiments were performed in compliance with the German Animal Protection Laws (Permission 35-9185.81/G-7-03, Reg.-Praesidium, Karlsruhe, Germany).
Biodistribution data. At 10 days after tumor inoculation, when tumors had reached a diameter of ca. 7-8 mm, the biodistribution experiments were initiated. Each animal (18-21 g) was given an intravenous tail-vein injection of 975 μmol/kg Gadovist® (Schering, Berlin, Germany) or 1 μmol/kg of Gd-2.2. 1 h post-injection (p.i.), the animals were weighed, sacrificed by cervical dislocation, perfused and dissected. Organs or tissues were blotted dry and weighed. Samples containing the tumor or organs were digested with concentrated HNO3 (Superselect; Merck, Darmstadt, Germany) and H2O2 under microwave heating with a Mars 5 apparatus (CEM GmbH, Kamp-Lintfort, Germany). To each sample 100 μL of an aqueous solution of rhodium chloride (1 μg/mL) were added so that Rh-103 could be used as an internal quantification standard. […] The gadolinium concentrations were determined using standard curves created prior to tissue analyses. The results are expressed as nmol Gd/g tissue scaled on the dose of 100 μmol of the corresponding Gd complex.

[5] = system: A498 (human kidney carcinoma); test: Intracellular uptake of gadolinium complexes (ICP-MS); assay type: cell-based; settings: A498, 1 h incubation, 100 μM
Protocol: as §1, §2

[6] = system: HeLa (human cervix carcinoma cells); test: as above; assay type: cell-based; settings: 1 h incubation, 100 μM
Protocol: as §1, §2

[7] = system: MCF-7 (human breast cancer); test: as above; assay type: cell-based; settings: MCF-7, 1 h incubation, 100 μM
Protocol: as §1, §2

human serum albumin = biological target: T1, human serum albumin (Homo sapiens, UniProt P02768); test: Serum albumin binding (ultrafiltration, ICP-MS); assay type: in vitro ADME; settings: 20 μM complex, 40 g/L HSA, 37° C., ultrafiltrate
T1 construct: purchased Behring, Bern, Switzerland
T1 sequence (P02768 25-609): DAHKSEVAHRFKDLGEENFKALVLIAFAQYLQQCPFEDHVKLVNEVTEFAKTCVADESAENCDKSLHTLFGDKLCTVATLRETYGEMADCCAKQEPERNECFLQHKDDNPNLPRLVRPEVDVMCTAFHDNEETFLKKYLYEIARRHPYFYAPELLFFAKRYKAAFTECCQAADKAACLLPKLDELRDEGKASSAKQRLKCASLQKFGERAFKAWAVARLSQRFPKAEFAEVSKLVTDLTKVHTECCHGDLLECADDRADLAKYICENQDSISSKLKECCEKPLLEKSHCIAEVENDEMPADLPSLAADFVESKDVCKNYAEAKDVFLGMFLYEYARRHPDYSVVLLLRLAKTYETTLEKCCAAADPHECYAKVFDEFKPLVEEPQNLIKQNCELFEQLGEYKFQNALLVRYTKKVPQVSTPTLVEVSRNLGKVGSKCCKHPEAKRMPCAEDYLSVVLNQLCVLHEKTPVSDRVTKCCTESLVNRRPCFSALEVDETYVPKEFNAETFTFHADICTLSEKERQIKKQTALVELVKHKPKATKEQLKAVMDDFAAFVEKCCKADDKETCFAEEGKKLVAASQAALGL
Protocol: Serum albumin binding. Solutions containing 20 μM Gd-3.1., Gd-5.1. or Gd-6.1. and 40 g/L human serum albumin (Behring, Bern, Switzerland) were incubated at 37° C. for 30 or 90 min. The solutions were subjected to ultrafiltration (filter cutoff 20 kD; Sartorius, Göttingen, Germany), and the amount of unbound complex was determined in the ultrafiltrate with ICP-MS (n=2).
HSA Binding: 20 μM solutions of the complexes were incubated at 37° C. for 30 and 90 minutes in a solution of 40 g HSA/L (Behring, Bern; Switzerland). The amount of unbound complex was determined in ultrafiltrates with ICP-MS.

B16 melanoma cells = test: Intracellular uptake of gadolinium complexes (ICP-MS); assay type: cell-based, mouse; settings: B16 melanoma cells, 1 h incubation, 100 μM
Protocol: as §3, §4, §5
as §1, with “h. […]” for “h.”

Complex stability = assay type: physicochemical; settings: method of Sherry et al.
Protocol: Complex stability. The stability constants were determined using a method of Sherry et al. (39).

| Compound | contrast ratio tumor vs. muscle tissue, T1 weighting [1] | intracellular uptake (below ICP-MS detection limit) [2] [fmol/cell] | intracellular gadolinium content after 1 h incubation plus additional 24 h in complex-free medium [3] | intracellular uptake of gadolinium complex ([3]; 1 h incubation with 100 μM complex) [fmol/cell] | preferential tissue binding (biodistribution) [4] | intracellular uptake of gadolinium complex [5] [fmol/cell] | intracellular uptake of gadolinium complex [6] [fmol/cell] | intracellular uptake of gadolinium complex [7] [fmol/cell] | complex found to be free (unbound) (human serum albumin) [%] | intracellular uptake of gadolinium complex (B16 melanoma cells) [fmol/cell] | complex stability constant (Complex stability) |
| --- | --- | --- | --- | --- | --- | --- | --- | --- | --- | --- | --- |
| O=C([O-])CN1CCN(CC(=O)[O-])CCN([C@H](CO)[C@H](O)CO)CCN(CC(=O)[O-])CC1.[Gd+3] (racemic) [Gadovist, gadobutrol, reference compound] | ≤ 1.06 | < 0.01 |  |  |  |  |  |  |  |  |  |
| NCCN(CCN)C(=O)CN1CCN(CC(=O)[O-])CCN(CC(=O)[O-])CCN(CC(=O)[O-])CC1.[Gd+3] [Gd-2.2] |  |  | the same as for the 1 h incubation | 0.222 | binds preferentially to kidneys and skin tissue, but shows high tumor uptake as well | 0.023 | 0.0078 | 0.0086 | 92±5 | 0.057 | about 3.45×10^21 |
